According to patent US10681909B2, “Herbicidal triazoles” (FMC Corporation, priority 2014, dated 2020):

Tests used:
johnsongrass = test: Test C postemergence; type: in vivo, Sorghum halepense
Description: (§1) Seeds of plant species selected from blackgrass (Alopecurus myosuroides), ryegrass, Italian (Italian ryegrass, Lolium multiflorum), wheat (winter wheat, Triticum aestivum), galium (catchweed bedstraw, Galium aparine), corn (Zea mays), crabgrass, large (large crabgrass, Digitaria sanguinalis), foxtail, giant, (giant foxtail, Setaria faberii), johnsongrass (Sorghum halepense), lambsquarters (Chenopodium album), morningglory (Ipomoea coccinea), nutsedge, yellow (yellow nutsedge, Cyperus esculentus), pigweed (Amaranthus retroflexus), ragweed (common ragweed, Ambrosia elatior), soybean (Glycine max), barnyardgrass (Echinochloa crus-galli), oilseed rape (Brassica napus), waterhemp (common waterhemp, Amaranthus rudis), and velvetleaf (Abutilon theophrasti) were planted into a blend of loam soil and sand and treated preemergence with test chemicals formulated in a non-phytotoxic solvent mixture which included a surfactant. At the same time, plants selected from these crop and weed species and also chickweed (common chickweed, Stellaria media), oat, wild (wild oat, Avena fatua), and kochia (Kochia scoparia), were planted in pots containing Sunshine Redi-Earth® planting medium comprising spaghnum peat moss, vermiculite, starter nutrients and dolomitic limestone and treated with postemergence applications of test chemicals formulated in the same manner. Plants ranged in height from 2 to 18 cm (1- to 4-leaf stage) for postemergence treatments. […] A dash (-) response means no test result.

chickweed = test: Test C postemergence; type: in vivo, Stellaria media
Description: as §1

kochia = test: Test C postemergence; type: in vivo, Kochia scoparia
Description: as §1

oat, wild = test: Test C postemergence; type: in vivo, Avena fatua
Description: as §1

foxtail, giant = test: Test C postemergence; type: in vivo, Setaria faberii
Description: as §1

ducksalad = test: Test B flooded paddy test; type: in vivo, Heteranthera limosa; details: 250 g ai/ha, applied to paddy water at 2-leaf stage, visual rating after 13 to 15 d, scale 0 (no effect) to 100 (complete control)
Method in brief: (§2)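 Pots were flooded to 3 cm above the soil at treatment, and compounds were applied directly into the paddy water. That depth was held throughout. After 13 to 15 d in a greenhouse, plants were rated visually against untreated controls.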

blackgrass = test: Test C postemergence; type: in vivo, Alopecurus myosuroides
Description: as §1

barnyardgrass [1] = test: Test C postemergence; type: in vivo, Echinochloa crus-galli
Description: as §1

ragweed = test: Test C postemergence; type: in vivo, Ambrosia elatior
Description: as §1

morningglory = test: Test C postemergence; type: in vivo, Ipomoea coccinea
Description: as §1

barnyardgrass [2] = test: Test B flooded paddy test; type: in vivo, Echinochloa crus-galli; details: 250 g ai/ha, applied to paddy water at 2-leaf stage, visual rating after 13 to 15 d, scale 0 (no effect) to 100 (complete control)
Method in brief: as §2

sedge, umbrella = test: Test B flooded paddy test; type: in vivo, Cyperus difformis; details: 250 g ai/ha, applied to paddy water at 2-leaf stage, visual rating after 13 to 15 d, scale 0 (no effect) to 100 (complete control)
Method in brief: as §2

SMILES | Plant response rating (scale of 0 to 100 where 0 is no effect and 100 is complete control) (johnsongrass; 62 g ai/ha) | Plant response rating (scale of 0 to 100 where 0 is no effect and 100 is complete control) (johnsongrass; 125 g ai/ha) | Plant response rating (scale of 0 to 100 where 0 is no effect and 100 is complete control) (johnsongrass; 250 g ai/ha) | Plant response rating (scale of 0 to 100 where 0 is no effect and 100 is complete control) (chickweed; 31 g ai/ha) | Plant response rating (scale of 0 to 100 where 0 is no effect and 100 is complete control) (chickweed; 62 g ai/ha) | Plant response rating (scale of 0 to 100 where 0 is no effect and 100 is complete control) (chickweed; 125 g ai/ha) | Plant response rating (scale of 0 to 100 where 0 is no effect and 100 is complete control) (chickweed; 250 g ai/ha) | Plant response rating (scale of 0 to 100 where 0 is no effect and 100 is complete control) (kochia; 31 g ai/ha) | Plant response rating (scale of 0 to 100 where 0 is no effect and 100 is complete control) (kochia; 62 g ai/ha) | Plant response rating (scale of 0 to 100 where 0 is no effect and 100 is complete control) (kochia; 125 g ai/ha) | Plant response rating (scale of 0 to 100 where 0 is no effect and 100 is complete control) (kochia; 250 g ai/ha) | Plant response rating (scale of 0 to 100 where 0 is no effect and 100 is complete control) (oat, wild; 31 g ai/ha) | Plant response rating (scale of 0 to 100 where 0 is no effect and 100 is complete control) (oat, wild; 62 g ai/ha) | Plant response rating (scale of 0 to 100 where 0 is no effect and 100 is complete control) (oat, wild; 125 g ai/ha) | Plant response rating (scale of 0 to 100 where 0 is no effect and 100 is complete control) (oat, wild; 250 g ai/ha) | Plant response rating (scale of 0 to 100 where 0 is no effect and 100 is complete control) (foxtail, giant; 31 g ai/ha) | Plant response rating (scale of 0 to 100 where 0 is no effect and 100 is complete control) (foxtail, giant; 62 g ai/ha) | Plant response rating (scale of 0 to 100 where 0 is no effect and 100 is complete control) (foxtail, giant; 125 g ai/ha) | Plant response rating (scale of 0 to 100 where 0 is no effect and 100 is complete control) (foxtail, giant; 250 g ai/ha) | Plant response rating, Ducksalad, Flood (ducksalad) | also measured
CCCOc1nc(-c2ccccc2)nn1Cc1ccnc(C(F)(F)F)c1 [Compound 33] | 5 | 10 | 15 | 55 | 60 | 60 | 80 | 90 | 90 | 90 | 90 | 10 | 10 | 20 | 25 | 10 | 10 | 15 | 15 | 30 | Plant response rating (scale of 0 to 100 where 0 is no effect and 100 is complete control) (johnsongrass; 31 g ai/ha): 5; Plant response rating (scale of 0 to 100 where 0 is no effect and 100 is complete control) (blackgrass; 31 g ai/ha): 5; Plant response rating (scale of 0 to 100 where 0 is no effect and 100 is complete control) (blackgrass; 62 g ai/ha): 5; Plant response rating (scale of 0 to 100 where 0 is no effect and 100 is complete control) (blackgrass; 125 g ai/ha): 10; Plant response rating (scale of 0 to 100 where 0 is no effect and 100 is complete control) (blackgrass; 250 g ai/ha): 10; Plant response rating (scale of 0 to 100 where 0 is no effect and 100 is complete control) (barnyardgrass [1]; 31 g ai/ha): 10; Plant response rating (scale of 0 to 100 where 0 is no effect and 100 is complete control) (barnyardgrass [1]; 62 g ai/ha): 20; Plant response rating (scale of 0 to 100 where 0 is no effect and 100 is complete control) (barnyardgrass [1]; 125 g ai/ha): 20; Plant response rating (scale of 0 to 100 where 0 is no effect and 100 is complete control) (barnyardgrass [1]; 250 g ai/ha): 25; Plant response rating (scale of 0 to 100 where 0 is no effect and 100 is complete control) (ragweed; 31 g ai/ha): 35; Plant response rating (scale of 0 to 100 where 0 is no effect and 100 is complete control) (ragweed; 62 g ai/ha): 35; Plant response rating (scale of 0 to 100 where 0 is no effect and 100 is complete control) (ragweed; 125 g ai/ha): 40; Plant response rating (scale of 0 to 100 where 0 is no effect and 100 is complete control) (ragweed; 250 g ai/ha): 75; Plant response rating (scale of 0 to 100 where 0 is no effect and 100 is complete control) (morningglory; 31 g ai/ha): 55; Plant response rating (scale of 0 to 100 where 0 is no effect and 100 is complete control) (morningglory; 62 g ai/ha): 80; Plant response rating (scale of 0 to 100 where 0 is no effect and 100 is complete control) (morningglory; 125 g ai/ha): 85; Plant response rating (scale of 0 to 100 where 0 is no effect and 100 is complete control) (morningglory; 250 g ai/ha): 75; Plant response rating, Barnyardgrass, Flood (barnyardgrass [2]): 0; Plant response rating, Sedge, Umbrella, Flood (sedge, umbrella): 85
COc1nc(-c2ccc(Cl)cc2)nn1Cc1ccnc(C(F)(F)F)c1 [Compound 28] | 5 | 10 | 85 | 80 | 95 | 90 | 90 | 95 | 100 | 100 | 100 | 5 | 5 | 10 | 15 | 15 | 10 | 10 | 10 | 90 | Plant response rating (scale of 0 to 100 where 0 is no effect and 100 is complete control) (blackgrass; 31 g ai/ha): 10; Plant response rating (scale of 0 to 100 where 0 is no effect and 100 is complete control) (blackgrass; 62 g ai/ha): 15; Plant response rating (scale of 0 to 100 where 0 is no effect and 100 is complete control) (blackgrass; 125 g ai/ha): 15; Plant response rating (scale of 0 to 100 where 0 is no effect and 100 is complete control) (blackgrass; 250 g ai/ha): 25; Plant response rating (scale of 0 to 100 where 0 is no effect and 100 is complete control) (barnyardgrass [1]; 31 g ai/ha): 15; Plant response rating (scale of 0 to 100 where 0 is no effect and 100 is complete control) (barnyardgrass [1]; 62 g ai/ha): 15; Plant response rating (scale of 0 to 100 where 0 is no effect and 100 is complete control) (barnyardgrass [1]; 125 g ai/ha): 15; Plant response rating (scale of 0 to 100 where 0 is no effect and 100 is complete control) (barnyardgrass [1]; 250 g ai/ha): 25; Plant response rating (scale of 0 to 100 where 0 is no effect and 100 is complete control) (ragweed; 31 g ai/ha): 25; Plant response rating (scale of 0 to 100 where 0 is no effect and 100 is complete control) (ragweed; 62 g ai/ha): 25; Plant response rating (scale of 0 to 100 where 0 is no effect and 100 is complete control) (ragweed; 125 g ai/ha): 75; Plant response rating (scale of 0 to 100 where 0 is no effect and 100 is complete control) (ragweed; 250 g ai/ha): 75; Plant response rating (scale of 0 to 100 where 0 is no effect and 100 is complete control) (morningglory; 31 g ai/ha): 70; Plant response rating (scale of 0 to 100 where 0 is no effect and 100 is complete control) (morningglory; 62 g ai/ha): 60; Plant response rating (scale of 0 to 100 where 0 is no effect and 100 is complete control) (morningglory; 125 g ai/ha): 65; Plant response rating (scale of 0 to 100 where 0 is no effect and 100 is complete control) (morningglory; 250 g ai/ha): 100; Plant response rating, Barnyardgrass, Flood (barnyardgrass [2]): 20; Plant response rating, Sedge, Umbrella, Flood (sedge, umbrella): 100
